Laboratory results reported in PMC4099323, “Inhibition of Catalase by Tea Catechins in Free and Cellular State: A Biophysical Approach” (PLoS ONE, 2014).

Columns and labels:
[1] = molecular target: T1, Catalase (from bovine liver) (Bos taurus, UniProt P00432); test: Fluorimetric titration: quenching of catalase fluorescence by catechins; format: binding; conditions: double logarithmic plot, 25°C; for Kd: pH 7.4, λex 280 nm, read-out: binding constant K with catalase (fluorimetric) (converted)
T1 construct: Catalase (from bovine liver); purchased Sigma-Aldrich, St. Louis, MO, USA; host or cells: bovine liver
T1 sequence (P00432 2-527 limits assumed): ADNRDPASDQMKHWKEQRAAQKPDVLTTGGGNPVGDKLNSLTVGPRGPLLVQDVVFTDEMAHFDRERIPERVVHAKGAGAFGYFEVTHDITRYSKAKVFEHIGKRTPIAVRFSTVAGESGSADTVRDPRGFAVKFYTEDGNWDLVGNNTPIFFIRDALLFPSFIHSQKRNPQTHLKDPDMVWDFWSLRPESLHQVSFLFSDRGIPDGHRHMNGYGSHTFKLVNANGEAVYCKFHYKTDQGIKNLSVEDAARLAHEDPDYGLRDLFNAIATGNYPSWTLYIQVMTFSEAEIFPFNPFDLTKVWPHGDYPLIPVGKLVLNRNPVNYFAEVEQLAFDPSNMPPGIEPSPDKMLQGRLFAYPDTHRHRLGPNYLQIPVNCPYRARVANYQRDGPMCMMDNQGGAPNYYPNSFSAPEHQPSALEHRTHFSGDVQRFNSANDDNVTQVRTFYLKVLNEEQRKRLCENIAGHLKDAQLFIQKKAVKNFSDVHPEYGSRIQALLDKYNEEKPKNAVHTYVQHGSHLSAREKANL
Method: Fluorescence spectra were recorded using a Perkin Elmer fluorescence spectrophotometer (LS-55) equipped with 150 W Xenon flash lamp and using fluorescence-free quartz cell of 1 cm path length. The widths of excitation and emission slits were set to 5 nm, and scan speed (100 nm/min), excitation voltage were kept constant for each data set. Quantitative analysis of the potential interaction between catechins and catalase was performed by the fluorimetric titration technique. Briefly, solution of catalase (5×10^−7 M, as calculated using molar extinction coefficient of 3.24×10^5 M^−1 s^−1 at 405 nm for catalase) in 50 mM phosphate buffer of pH 7.4 was titrated in cuvette by successive additions of individual catechin solution aliquots from a stock of 5×10^−7 M. Fluorescence emission spectra were recorded in the wavelength range of 290–450 nm upon excitation at 280 nm when catalase samples were titrated with catechins. All experiments were carried out at room temperature. Fluorescence intensity was measured at 340 nm of protein emission spectra. Fluorescence spectra of individual catechins in buffer were recorded as blanks under the same experimental conditions and subtracted from the corresponding sample to correct the fluorescence background.
The binding constants and the number of binding sites involved were calculated according to the relation: log (F0–F)/F = log K+n log [Q], where K is the binding constant and n is the number of binding sites, F0 is the fluorescence intensity of free catalase, F is the consecutive fluorescence on addition of catechins, and [Q] is the concentration of the quencher (here catechins). A plot of log (F0– F)/F and log [Q] was used to determine the values of K and n from the intercept and the slope respectively (Figure 3 A–D).

[2] = molecular target: T1, Catalase (from bovine liver); test: Inhibition of pure catalase activity (cell free), H2O2 decay at 240 nm; format: biochemical; conditions: pure catalase, 50 µM each, 1 h incubation
Method: Absorption spectrophotometer (Varian, CARY 100 Bio, USA) was used to determine pure catalase activity (cell free). Briefly, 900 µl of H2O2 (0.036%) was taken in quartz cell of 1 cm path length and its absorbance was recorded at 240 nm. To the solution, 100 µl of catalase (50 U/ml) was added and the decrease in absorbance was recorded at 10 s interval. This experiment was performed in presence 50 µM each of four catechins and 3-AT separately to evaluate the inhibitory effect of catechins on catalase activity, after 1 h incubation.
On addition of catechins, a decrease in rate of H2O2 degradation i.e. a decrease in pure catalase activity was observed which is represented in Figure 6A. Catechins with galloyl moiety (ECG and EGCG) reduced catalase activity more than its non-gallated counterparts i.e. EGC and EC. However, Inhibition by EGCG is the closest to inhibition by known catalase inhibitor 3-AT.

[3] = molecular target: T1, Catalase (from bovine liver); test: Circular dichroism: catechin-induced conformational change in catalase; conditions: catalase 1 µM, ligands 3 µM each, 25°C
Method: All the CD experiments were carried out on a Jasco-815 automatic spectropolarimeter (Jasco International Co., Ltd. Hachioji, Japan) equipped with a peltier cuvette holder and temperature controller PFD425 L/15. The catalase concentration and path length of the cuvette used were 1 µM and 0.1 cm, respectively. The instrument parameters were set at scanning speed of 50 nm/min, bandwidth of 1.0 nm and sensitivity of 100 milli degree. The molar ellipticity values are expressed in terms of mean residue molar ellipticity, in units of deg. cm^2 dmol^−1.
CD allows investigation of the conformational changes that occur in a protein upon ligand binding. The CD spectra of catalase at pH 7.4 in the absence and in the presence of EGC, EC, ECG, EGCG, and 3-AT at 25°C are represented in Figure 5 (a – f). […] The negative band at 208 and 220 nm decreased in intensity with the addition of various catechins, which is indicative of the loss of α-helicity upon interaction. […] From the CD spectra, the effect of catechins on the secondary structure of catalase is in the following order: 3-AT>EGCG>ECG>EC>EGC.

[4] = molecular target: human dihydrofolate reductase (DHFR); design: method as in PMID 20054477; conditions: fluorescence quenching; cited from earlier work
[5] = molecular target: T1, Catalase (from bovine liver); test: Isothermal titration calorimetry of catechins binding to catalase; conditions: 25°C; for ΔG / ΔH / ΔS: ITC; for ΔG: calculated from the average values of ΔH; for ΔH / ΔS: directly extracted from the experiment; for Kd: one-site binding model, from ΔG = −RT ln K, read-out: binding constant with catalase (ITC) (converted)
Method: The energetics of the binding of catechins to catalase was studied by ITC using a MicroCal ITC200, (Northampton, MA, USA). All solutions were degassed under vacuum (140 mbar, 10 min) on the MicroCal’s Thermovac unit to eliminate air bubble formation inside the calorimeter cell. Briefly, the calorimeter syringe was filled with a concentrated solution of catechins (10 µM each). Successive injections of this solution into 1 µM solution of catalase in the calorimeter cell were effected from the rotating syringe with constant stirring of the solution. The titration and analysis were performed through Origin 7 software provided with the unit.
ITC directly measures the heat released during a chemical reaction. ITC can reveal the stoichiometry, enthalpy free energy, and entropy changes that occur over the course of a reaction, [46]. Data obtained from the titration are presented by the series of peaks corresponding to each injection. Usually, this representation is transformed into the apparent heat change between two injections as a function of the titrant ratio by means of integration of power differential with regard to time. ITC has been used mainly to quantify interactions in various biochemical systems [47]–[49]. ITC has been used in the present study to determine binding affinity and other thermodynamic parameters of catechins-catalase interaction. Representative isothermal calorimetric heat profiles for the binding of catechins-catalase interaction, at physiological pH and 25°C are shown in Figure 4 (A–D). The data were corrected for the heat of dilution of catechins, which was determined in a separate set of experiments under identical conditions. The titration and analysis were performed using one-site binding model through Origin 7 software provided with the unit. From Figure 4 it is observed that the titration of catalase with all the four catechins yield negative heat deflections. EC, EGC, ECG, and EGCG bind to catalase with binding constants 2.13×10^5, 1.92×10^5, 6.36×10^5, and 8.19×10^5 M^−1, respectively, as determined by the following equation: ΔG = −RT ln K, where ΔG is the free energy, R and T are the gas constant and temperature, respectively, K is the binding constant.

K562 cells = test: MTT cell viability assay; format: cell-based; conditions: Homo sapiens
Method: Cell viability of K562 cells was quantified by MTT based colorimetric assay as described elsewhere. Briefly, cells were rinsed with PBS and 0.5 mg/ml MTT was added into each sample. The mixture was incubated at 37°C for an additional 3 h. At the end of incubation period, the medium containing MTT was removed and the pellet was dissolved in 200 µl DMSO. Absorbance was measured at a wavelength of 570 nm. Cell viability was expressed as a percentage of the control culture.
The concentration (IC50) at which the K562 cell survivability was reduced to 50% was calculated for EGCG and 3-AT by MTT based cell viability assay.

catalase = conditions: cited from earlier work

Compound: O=C(OC1Cc2c(O)cc(O)cc2OC1c1ccc(O)c(O)c1)c1cc(O)c(O)c(O)c1 (single isomer, unassigned; (-)) [ECG, (−)-epicatechin gallate]
- number of binding sites n [1]: single binding site
- Kd [1]: 0.602 µM
- order of inhibition of catalase activity [2]: 3-AT>EGCG>ECG>EC>EGC
- order of effect on the secondary structure of catalase (loss of α-helicity) [3]: 3-AT>EGCG>ECG>EC>EGC
- Kd [4]: 1.8 µM
- ΔG [5]: -7.8 kcal/mol
- ΔH [5]: -756 ± 30.2 kcal/mol
- ΔS [5]: −2.60×10^3 cal/mol/K
- Kd [5]: 1.57 µM

Compound: Oc1cc(O)c2c(c1)OC(c1cc(O)c(O)c(O)c1)C(O)C2 (single isomer, unassigned; (-)) [EGC, (−)-epigallocatechin]
- number of binding sites n [1]: single binding site
- Kd [1]: 12.7 µM
- order of inhibition of catalase activity [2]: 3-AT>EGCG>ECG>EC>EGC
- order of effect on the secondary structure of catalase (loss of α-helicity) [3]: 3-AT>EGCG>ECG>EC>EGC
- binding to DHFR [4]: did not bind
- ΔG [5]: -7.1 kcal/mol
- ΔH [5]: -3.2e+06 ± 106000 kcal/mol
- ΔS [5]: −1.07×10^7 cal/mol/K
- Kd [5]: 5.21 µM

Compound: Nc1nc[nH]n1 [3-AT, 3-amino-1,2,4-triazole, reference compound]
- order of inhibition of catalase activity [2]: 3-AT>EGCG>ECG>EC>EGC
- order of effect on the secondary structure of catalase (loss of α-helicity) [3]: 3-AT>EGCG>ECG>EC>EGC
- IC50 (K562 cells): 10.5 µM

Compound: Oc1cc(O)c2c(c1)O[C@H](c1ccc(O)c(O)c1)[C@H](O)C2 [EC, (−)-epicatechin]
- number of binding sites n [1]: single binding site
- Kd [1]: 9.26 µM
- order of inhibition of catalase activity [2]: 3-AT>EGCG>ECG>EC>EGC
- order of effect on the secondary structure of catalase (loss of α-helicity) [3]: 3-AT>EGCG>ECG>EC>EGC
- binding to DHFR [4]: did not bind
- ΔG [5]: -7.17 kcal/mol
- ΔS [5]: −2.40×10^7 cal/mol/K
- Kd [5]: 4.69 µM

Compound: microcystin
- binding constant of catalase-microcystin complex (catalase): 61200 M⁻¹
